Legend:
mitochondrial pH [1] = conditions: BALB/cJ mouse, subcutaneous tumor expressing mito-pH-Countdown, before vs after administration of BAM15
From the text: Left panel: Raw time lapse animation (grayscale) of the back of a BALB/cJ mouse carrying a subcutaneous tumor expressing mito-pH-Countdown, measured in the GFP channel of a simple fluorescence photography system. […] Orange/blue/green box marks a region expressing mito-pH-Countdown. Right panel: Average fluorescent signal vs. time for two measurements before(orange, dots) and two measurements after (blue or green, triangles) administration of the mitochondrial uncoupler BAM15. […] Light gray lines show calibration measurements for pH 7.5 (solid) and pH 8 (dashed).

mitochondrial pH [2] = conditions: same cell type given the same drug in a dish

## Fc1ccccc1Nc1nc2nonc2nc1Nc1ccccc1F [BAM15]
Mitochondrial pH [1]
  drug-induced shift in mitochondrial pH: roughly 0.2 pH units
Mitochondrial pH [2]
  shift in mitochondrial pH: ~1 pH unit

From patent US20240353414A1 (Calico Life Sciences LLC, priority 2021, published 2024)
